Assay results: US7659277B2, “Ubiquitin ligase inhibitors and methods related thereto” (Proteologies, Ltd., priority 2003, dated 2010)

How the values were obtained:
POSH = target: T1, POSH (Homo sapiens, UniProt Q7Z6J0); assay: IC50 assay procedure: GST-POSH auto-ubiquitination, homogeneous time-resolved fluorescence (Ub-cryptate / anti-GST XL665); assay type: biochemical; conditions: ubiquitin ligase activity of POSH; GST-POSH 33 nM, 30 min preincubation
T1 construct: GST-POSH lot NB81/p.118 3.6 mg/ml; fused on or other part: GST tag, used for detection with anti-GST XL665
T1 sequence (Q7Z6J0 1-269 limits assumed): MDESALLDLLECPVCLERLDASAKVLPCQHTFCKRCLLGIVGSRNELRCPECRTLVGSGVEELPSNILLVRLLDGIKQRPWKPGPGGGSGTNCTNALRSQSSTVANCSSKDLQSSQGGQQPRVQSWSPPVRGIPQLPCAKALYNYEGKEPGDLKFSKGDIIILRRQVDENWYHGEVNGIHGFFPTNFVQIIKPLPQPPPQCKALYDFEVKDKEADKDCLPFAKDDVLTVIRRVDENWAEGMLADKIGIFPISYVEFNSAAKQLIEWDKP
Description: In certain preferred embodiments, agents that inhibit (or promote) the ubiquitin ligase activity of a ubiquitin ligase, such as POSH, may be identified using a homogenous time resolved fluorescence assay. Such an assay may employ a GST fused to the RING subunit of a ubiquitin ligase (e.g. POSH). Two flurophore-conjugated detection reagents are also used: anti-GSTXL665 and europium cryptate labeled ubiqutin. The ubiqutination of the ubiquitin ligase by ubiqutin cryptate and binding of the anti-GST tagged XL665 brings the fluorophores into close proximity allowing FRET reaction to occur. Accordingly, FRET serves as a measurement of ubiquitination of the ubiquitin ligase. An enzymatic system may be set up to provide activated ubiquitin, e.g., by providing ubiquitin, an E1 and an E2. Compounds that will not allow the FRET reaction are considered to be inhibitors.
Step 3: establish IC 50 value measurements.
Experimental Protocols: 1. HTS Screening Assay Procedure • Microplates 10109D to 10114D compounds at 1 mM. • (Controls in column 1). • All compounds were perchase from ChemBridge corporation: ChemBridge corporation 16981 Via Tazon, Suite G San Diego, Calif. 92127 a. Microplates Labeling • Put labels to 6 PS U-bottom clear microplate. • Put labels to 18 black microplates (triplicats). b. Microplates Preparation • Put 100 μl GST-POSH at 33 nM in wells of the clear PS U-bottom microplates (exept wells A1-D1). • Negative control: place 100 μl dH2O in wells A1-D1. • (Positive control: place 100 μl GST-POSH at 33 nM in wells E1-H1). • Put 8 μl enzymes solution ×4 to black microplates (column 1 to 11). c. Incubation of E3 with Compounds • Transfer 5 μl of compounds (at 1 mM) to the microplates containing 100 μl GST-POSH. • Add 5 μl of DMSO to controls column 1. • Incubation 30 minutes at RT. d. Enzymatic (Ubiquitination) and Final Steps • Distribution of (triplicate) 3×23 μl incubated compounds into 3 black microplates containing enzymatic solution (on splitting apparatus). • Incubation 30 minutes at 37° C. • Addition of 8 μl EDTA 0.5 M. • Incubation 15 (at least) minutes at RT. • Addition of 30 μl GST XL 665 in reconstitution buffer. • Incubation 45 (at least) minutes at RT. • Reading fluorescence. • Record results in computer. • Put sealing foil back on original and diluted microplates and keep at −70° C. • Always the plates must be closed with lids during each step. 2. […] Microplates Labeling • Put labels to 4 clear PP clear microplate (18.2 μM, 9.1 uM, 1.82 uM, 910 nM,). • Put labels to 5 clear PS U-bottom clear microplate 4.44 μM, 909, 444, 91 and 44 nM) • Put labels to 15 black microplates (triplicates). f. Original Microplate Dilutions • Put DMSO 40 μl to (18.2 μM, 1.82 uM plates) and 20 ul to (9.1 uM, 910 nM plates. • Mix by pipetation the original microplate (3× up and down 45 μl). • Transfer 10 μl of compounds from the original microplate (at 91 μM) to the next microplate (=18.2 μM) on splitting apparatus. • Mix by pipetation the 18.2 uM microplate (3× up and down 45 μl). • Transfer 20 μl of compounds from the 18.2 uM microplate to the next microplate (=9.1 μM) on splitting apparatus. • Mix by pipetation the 9.1 uM microplate (3× up and down 45 μl). • Transfer 10 μl of compounds from the 9.1 uM microplate to the next microplate (=1.82 μM) on splitting apparatus. • Mix by pipetation the 1.82 uM microplate (3× up and down 45 μl). • Transfer 20 μl of compounds from the 1.82 uM microplate to the next microplate (=910 nM) on splitting apparatus • Mix by pipetation. g. Microplates Preparation • Put 123 μl GST-POSH at 33 nM in wells of the 5 clear PS U-bottom clear microplates. • Positive control: place 123 μl GST-POSH at 33 nM in well A12-h12 13 μl DMSO. • Negative control: place 123 μl dH2O in well B1 and 13 μl DMSO. • Put 8 μl enzymes solution ×4 to 15 black microplates. • Controls: put 8 μl enzymes solution ×4 to wells A1 to F1. h. […]

HIV-1 = assay: HIV maturation (budding) in virus-like particle assay, HIV-1 p24 antigen ELISA; assay type: cell-based; conditions: Human immunodeficiency virus 1, read-out: Budding (3 μM)
Description: Compounds were further assessed for effects on maturation of HIV particles in a virus-like particle assay.

| IC50 (POSH) [nM] | Compound | activity at 3 µM (HIV-1) [%] |
| --- | --- | --- |
| 2000 | CC(=C\c1ccccc1)/C=C1/NC(=S)NC1=O [Compound 30] | – |
| 650 | O=C1/C(=C\c2cc(Cl)ccc2O)Sc2ccccc21 [Compound 44] | – |
| 1000 | Cc1c(Br)c(=O)oc2c(Br)c(O)c(O)cc12 [Compound 83] | – |

The remaining lines, values behind:

| Compound | IC50 (POSH) [nM] | activity at 3 µM (HIV-1) [%] |
| --- | --- | --- |
| CC(C)(C)c1ccc(C2=N/C(=C\c3cccs3)C(=O)O2)cc1 [Compound 48] | 1300 | 58 |
| CCCOC(=O)c1ccc(/N=C/c2c(O)ccc3ccccc23)cc1 [Compound 69] | 700 | 41 |
